One series has as its system H1975. Put plainly: Inhibition assay on tumor cell proliferation (CellTiter-Glo), H1975. It counts as cell-based, Human. The note with it: H1975 (L858R and T790M EGFR double mutation), 72 hours, 10% bovine serum.
In the next series the test system is LOVO. Put plainly: Inhibition assay on tumor cell proliferation (CellTiter-Glo), LOVO. In kind it is cell-based, Human. The note with it: LOVO (wild-type EGFR), 72 hours, 10% bovine serum. Here is the method:
(§1) By using a CellTiter-Glo luminescence cell viability test kit (Promega, # G7572), the content of adenosine triphosphate (ATP) was determined to assess the cell viability.
(§2) Human colon cancer cell line LOVO and human non-small-cell lung cancer H358 express wild-type EGFR. Human non-small-cell lung cancer cell line HCC827 carries deletion mutation in exon 19 (ex19del). Those cell lines are purchased from Shanghai Fudan IBS Cell Resource Center and American Tissue Culture Collection (ATCC).
(§3) The assay procedure is as follows. The cells in a cell culture plate were digested with a pancreatic enzyme, re-suspended in a DPBS culture medium, and had the cell density counted by Scepter automated cytometer (Millipore # PHCC00000). The cells were diluted to a solution of 44,000 cells per ml. The cell solution with adjusted density was added to the cell assay plate at 90 microliters per well. The plate was placed in an incubator with 5% CO2 at 37° C. for 24 hours of incubation, and then added with different concentrations of subject compounds. The cells were incubated for 72 hours with the compounds in presence of 10% bovine serum. The content of ATP was determined by a CellTiter-Glo® Luminescent Cell Viability Assay kit (see the manufacturer's instruction for details) to evaluate cell-growth inhibition.
(§4) Briefly, 30 μl of CellTiter-Glo® reagent was added to each well, and then shaken for 10 minutes to induce cell lysis. The fluorescent signal was detected and recorded by Fluoroskan Ascent FL (Thermo). The max signal value was obtained from the cells treated by dimethyl sulfoxide for 72 hours. The min signal value was obtained from the medium alone (the number of the cells was 0). Inhibitory rate %=(max signal value−compound signal value)/(max signal value−min signal value)×100. The data was processed by GraphPad Prism V5.0 software (GraphPad Software, San Diego, Calif.). Sigmoidal dose-response curve fitting was performed to calculate the IC50 value.
On the technique in general: In ATP-based viability assays light output follows the ATP content of the culture.

A further series concerns H358. Put plainly: Inhibition assay on tumor cell proliferation (CellTiter-Glo), H358. It counts as cell-based, Human. The conditions noted are these: H358 (wild-type EGFR), 72 hours, 10% bovine serum. The method, then:
as §1, §2, §3, §4

A further series concerns the target T1, EGFR T790M/L858R (Homo sapiens, UniProt P00533, L858R/T790M).
T1 construct: purchased Invitrogen PR8911A
Put plainly: Mutant EGFR T790M/L858R activity inhibition assay (Caliper mobility shift). It counts as biochemical. The note with it: read-out: enzyme activity inhibition (IC50) EGFR T790M/L858R. Here is the method:
The assay procedure is as follows. […] 5 μl of the compound dissolved in 10% DMSO at a concentration of 5-fold of the final reaction concentration was added to a 384 well plate. 5 μl of 10% DMSO was used in a no-compound control well, while 5 μl of a kinase buffer was used in a no-enzyme activity control well. […] The conversion rate was read on Caliper EZ Reader II (Caliper Life Sciences). The conversion rate was then converted to inhibitory rate.
As used herein, “max” refers to the conversion rate of the DMSO no-compound control well, and “min” refers to the conversion rate of the no-enzyme activity control well. A curve was obtained by plotting the inhibitory rate as a function of the compound concentration. The XLFit excel add-in version 4.3.1 software was used to fit the curve and calculate the IC50. Inhibitory rate %=(max−conversion rate)/(max−min)×100.

A short description of series [1]: Pharmacokinetics in rats after oral administration. In kind it is in vivo, SD rats. The conditions noted are these: for AUC(0-inf) / Cmax / Tmax / half-life / AUC(0-t): male, SD, rat, 20 mg/kg, plasma; for AUC(0-t): read-out: AUC0-24. The method, then: Male SD rats weighing 250-300 g, or male beagles weighing 9-10 kg, were fasted overnight before the experiment. The object compounds were dissolved in 30% sulfobutylated beta-cyclodextrin (SBE-β-CD), and orally administrated to the rats at a dose of 20 mg/kg or to the beagles at a dose of 5 mg/kg. Blood samples were taken at 15 minutes, 30 minutes, 1 hour, 2 hours, 3 hours, 4 hours, 6 hours, 8 hours and 24 hours after administration. 0.3 ml of blood was collected at every time point, placed in a centrifuge tube containing K2-EDTA (ethylenediamine tetraacetic acid dipotassium) and centrifuged (2,000 g, 10 minutes, 4° C.) to collect plasma, which was then stored in an ultra cold storage freezer at −80° C. 50 μL of plasma sample was mixed with 5 μL of internal standard (IS), and then extracted with ethyl acetate. After vacuum drying, the residue was re-dissolved in acetonitrile. The sample was filtered and injected into LC-MS/MS for analysis.

As usually defined, the melting point is the temperature, or range, at which the solid turns liquid. In general, AUC(0-inf) refers to total exposure, with the tail of the curve extrapolated. Low values mean low exposure, high ones high exposure. Broadly, the Cmax is the peak of the concentration-time curve. What is called Tmax is the time at which the peak concentration occurs. For orientation: half-life means the time in which the quantity being followed falls by half.

T1 sequence (P00533 25-1210 T790M/L858R): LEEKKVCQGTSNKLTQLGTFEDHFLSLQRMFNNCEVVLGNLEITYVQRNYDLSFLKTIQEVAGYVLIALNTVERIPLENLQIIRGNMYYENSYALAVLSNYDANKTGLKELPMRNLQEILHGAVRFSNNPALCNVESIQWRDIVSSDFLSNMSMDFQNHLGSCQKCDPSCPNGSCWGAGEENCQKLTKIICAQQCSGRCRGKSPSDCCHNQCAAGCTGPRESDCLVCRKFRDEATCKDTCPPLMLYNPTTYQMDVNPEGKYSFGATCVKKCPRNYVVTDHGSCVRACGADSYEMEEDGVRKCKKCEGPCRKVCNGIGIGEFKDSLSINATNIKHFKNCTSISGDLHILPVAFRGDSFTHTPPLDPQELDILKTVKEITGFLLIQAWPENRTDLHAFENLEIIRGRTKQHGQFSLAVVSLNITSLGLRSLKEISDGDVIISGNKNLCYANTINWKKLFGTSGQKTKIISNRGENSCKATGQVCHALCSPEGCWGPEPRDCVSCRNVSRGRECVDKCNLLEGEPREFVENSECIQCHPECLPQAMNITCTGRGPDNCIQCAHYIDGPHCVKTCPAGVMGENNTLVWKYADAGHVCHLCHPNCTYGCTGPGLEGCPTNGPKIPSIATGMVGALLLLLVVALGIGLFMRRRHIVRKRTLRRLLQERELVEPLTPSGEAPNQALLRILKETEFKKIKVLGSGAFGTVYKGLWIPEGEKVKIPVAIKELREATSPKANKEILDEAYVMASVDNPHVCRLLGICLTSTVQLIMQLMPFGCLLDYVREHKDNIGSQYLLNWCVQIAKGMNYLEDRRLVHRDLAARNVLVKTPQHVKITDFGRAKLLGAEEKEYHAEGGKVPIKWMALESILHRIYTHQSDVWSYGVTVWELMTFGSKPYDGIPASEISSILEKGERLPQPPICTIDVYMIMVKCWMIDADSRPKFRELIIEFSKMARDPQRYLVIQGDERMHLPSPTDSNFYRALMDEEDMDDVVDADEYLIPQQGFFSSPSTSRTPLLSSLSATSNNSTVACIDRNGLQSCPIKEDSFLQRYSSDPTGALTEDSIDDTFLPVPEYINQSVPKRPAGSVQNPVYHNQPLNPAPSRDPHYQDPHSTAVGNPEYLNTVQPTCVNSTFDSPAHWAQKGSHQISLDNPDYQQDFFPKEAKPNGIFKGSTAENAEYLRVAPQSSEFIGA

Take `COc1cc(N(C)CCN(C)C)c(NC(=O)/C=C/CN2CCCCC2)cc1Nc1nccc(-n2ccc3ccccc32)n1` [Compound 70, (E)-N-(5-(4-(1H-indol-1-yl)pyrimidin-2-ylamino)-2-((2-(dimethylamino)ethyl)(methyl)amino)-4-methoxyphenyl)-4-(piperidin-1-yl)but-2-enamide]: the IC50 in the series on H1975 (Homo sapiens, NCI-H1975) was in the range of 100 to 1000 nM; with LOVO (Homo sapiens), 100 to 1000 nM; in the series with H358 (Homo sapiens, NCI-H358) it was 100 to 1000 nM; at EGFR T790M/L858R, 1 to 10 nM.
With `C=CC(=O)Nc1cc(Nc2nccc(-n3c(=O)n(C)c4cc(OC)ccc43)n2)c(OC)cc1N(C)CCN(C)C` [Compound 53, N-(2-((2-(dimethylamino)ethyl) (methyl)amino)-4-methoxy-5-((4-(5-methoxy-3-methyl-2-oxo-2,3-dihydro-1H-benzo[d]imidazol-1-yl)pyrimidin-2-yl)amino)phenyl)acryl amide], the IC50 with H1975 was 10 to 50 nM; with LOVO it was above 1000 nM; in the series on H358, 50 to 100 nM; on EGFR T790M/L858R it was below 1 nM.
In the case of `C=CC(=O)Nc1cc(Nc2ncc(C)c(-n3ccc4ccccc43)n2)c(OC)cc1N(C)CCN(C)C` [Compound 8, N-(5-((4-(1H-indol-1-yl)-5-methylpyrimidin-2-yl)amino)-2-((2-(dimethylamino)ethyl)(methyl)amino)-4-methoxyphenyl)acrylamide], the IC50 in the series with H1975 (Homo sapiens, NCI-H1975) was below 10 nM; in the series on LOVO (Homo sapiens) it was above 1000 nM; with H358 (Homo sapiens, NCI-H358) it was 100 to 1000 nM; on EGFR T790M/L858R it was below 1 nM.
`C=CC(=O)Nc1cc(Nc2nccc(-n3ccc4cc(Cl)ccc43)n2)c(OC)cc1N(C)CCN(C)C` [Compound 31, N-(5-((4-(5-chloro-1H-indol-1-yl)pyrimidin-2-yl)amino)-2-((2-(dimethylamino)ethyl)(methyl)amino)-4-methoxyphenyl)acrylamide] came in with a melting point of 150 to 153 °C. Also, in the series with H1975 (Homo sapiens, NCI-H1975), the IC50 was below 10 nM. The compound further displayed an IC50 with H358 (Homo sapiens, NCI-H358) above 1000 nM. In addition, on EGFR T790M/L858R, the IC50 is below 1 nM.
In the case of `C=CC(=O)Nc1cc(Nc2ncc(N(C)C)c(-n3c(=O)n(C(C)C)c4ccccc43)n2)c(OC)cc1N(C)CCN(C)C` [Compound 135, N-(5-((5-(dimethylamino)-4-(3-isopropyl-2-oxo-2,3-dihydro-1H-benzo[d]imidazol-1-yl)pyrimidin-2-yl)amino)-2-((2-(dimethylamino)ethyl)(methyl)amino)-4-methoxyphenyl)acrylamide], the melting point lay within 114.6 to 116.2 °C. In the series with H1975 (Homo sapiens, NCI-H1975), this compound displayed an IC50 of 10 to 50 nM. For the same compound, the IC50 in the series with H358 (Homo sapiens, NCI-H358) is above 1000 nM. Also, the IC50 at EGFR T790M/L858R is 1 to 10 nM.
Regarding `C=CC(=O)Nc1cc(Nc2nccc(-n3c(=O)n(CC=C(C)C)c4ccccc43)n2)c(OC)cc1N(C)CCN(C)C` [Compound 62, N-(2-((2-(dimethylamino)ethyl)(methyl)amino)-4-methoxy-5-(4-(3-(3-methylbut-2-enyl)-2-oxo-2,3-dihydro-1H-benzo[d]imidazol-1-yl)pyrimidin-2-ylamino)phenyl)acrylamide], the melting point lay within 187 to 188 °C. This compound showed an IC50 with H1975 (Homo sapiens, NCI-H1975) below 10 nM. Moreover, the IC50 in the series on H358 (Homo sapiens, NCI-H358) lay in the range of 100 to 1000 nM. Also, the IC50 on EGFR T790M/L858R is below 1 nM. Besides, in series [1], the “absorption / blood exposure after oral administration (in words)” value was “well absorbed, with high blood exposure”; the AUC(0-inf) was 920 ng·h/mL; the Cmax worked out at 84 ng/mL; the Tmax stood at 3.7 h. In addition, in series [1], the half-life was 6.8 h and the AUC(0-t) was determined as 834 ng·h/mL.
Compound `C=CC(=O)Nc1cc(Nc2nccc(-n3c(=O)n(C4CC4)c4cc(C#N)ccc43)n2)c(OC)cc1N(C)CCN(C)C` [Compound 101, N-(5-((4-(5-cyano-3-cyclopropyl-2-oxo-2,3-dihydro-1H-benzo[d]imidazol-1-yl)pyrimidin-2-yl)amino)-2-((2-(dimethylamino)ethyl)(methyl)amino)-4-methoxyphenyl)acrylamide] gave a melting point of 177 to 179 °C. This compound came in with an IC50 in the series on H1975 (Homo sapiens, NCI-H1975) below 10 nM. Moreover, the IC50 with H358 (Homo sapiens, NCI-H358) fell in the range of 100 to 1000 nM. The IC50 at EGFR T790M/L858R is below 1 nM.
With `C=CC(=O)Nc1cc(Nc2nccc(-n3c(=O)n(CC4CC4)c4ccccc43)n2)c(OC)cc1N(C)CCN(C)C` [Compound 63, N-(5-((4-(3-(cyclopropylmethyl)-2-oxo-2,3-dihydro-1H-benzo[d]imidazol-1-yl)pyrimidin-2-yl)amino)-2-((2-(dimethylamino)ethyl)(methyl)amino)-4-methoxyphenyl)acrylamide], the melting point was 68 to 72 °C. The IC50 in the series with H1975 (Homo sapiens, NCI-H1975) was below 10 nM. In addition, in the series with H358 (Homo sapiens, NCI-H358), the IC50 was above 1000 nM. Besides, the IC50 at EGFR T790M/L858R is below 1 nM.
For `C=CC(=O)Nc1cc(Nc2nccc(-n3c(=O)n(C4CC4)c4cc(OC)ccc43)n2)c(OC)cc1N(C)CCN(C)C` [Compound 102, N-(5-((4-(3-cyclopropyl-5-methoxy-2-oxo-2,3-dihydro-1H-benzo[d]imidazol-1-yl)pyrimidin-2-yl)amino)-2-((2-(dimethylamino)ethyl)(methyl)amino)-4-methoxyphenyl)acrylamide], in that order: 144 to 146 °C, below 10 nM, 100 to 1000 nM and below 1 nM.
In the same order, the values of `C=CC(=O)Nc1cc(Nc2nccc(-n3c(=O)n(C4CC4)c4cc(F)ccc43)n2)c(OC)cc1N(C)CCN(C)C` [Compound 98, N-(5-(4-(3-cyclopropyl-5-fluoro-2-oxo-2,3-dihydrobenzo[d]imidazol-1-yl)pyrimidin-2-ylamino)-2-((2-(dimethylamino)ethyl)(methyl)amino)-4-methoxyphenyl)acrylamide] are 181 to 184 °C, below 10 nM, 100 to 1000 nM and below 1 nM.
`C=CC(=O)Nc1cc(Nc2nccc(-n3ccc4nc(Cl)ccc43)n2)c(OC)cc1N(C)CCN(C)C` [Compound 124, N-(5-((4-(5-chloro-1H-pyrrolo[3,2-b]pyridin-1-yl)pyrimidin-2-yl)amino)-2-((2-(dimethylamino)ethyl)(methyl)amino)-4-methoxyphenyl)acrylamide] gave a melting point of 127 to 129 °C. The compound also registered an IC50 with H1975 (Homo sapiens, NCI-H1975) below 10 nM. Besides, the IC50 in the series with H358 (Homo sapiens, NCI-H358) was 100 to 1000 nM. In addition, the IC50 on EGFR T790M/L858R is below 1 nM. Moreover, in series [1], the “absorption / blood exposure after oral administration (in words)” value is recorded as “well absorbed, with high blood exposure”; the AUC(0-inf) stood at 1790 ng·h/mL; the Cmax worked out at 327 ng/mL; the Tmax stood at 1.7 h. Moreover, in series [1], the half-life is 6.1 h and the AUC(0-t) was found to be 1700 ng·h/mL.
`C=CC(=O)Nc1cc(Nc2nccc(-n3c(=O)n(C)c4ccccc43)n2)ccc1N(C)CCN(C)C` [Compound 125, N-(2-((2-(dimethylamino)ethyl)(methyl)amino)-5-((4-(3-methyl-2-oxo-2,3-dihydro-1H-benzo[d]imidazol-1-yl)pyrimidin-2-yl)amino)phenyl)acrylamide] had a melting point of 190 to 193 °C. This compound also gave an IC50 in the series on H1975 (Homo sapiens, NCI-H1975) below 10 nM. For the same compound, the IC50 in the series with H358 (Homo sapiens, NCI-H358) lay within 100 to 1000 nM. Further, at EGFR T790M/L858R, the IC50 was below 1 nM.

(Values after patent publication US11267802B2 (BEBETTER MED INC., priority 2015, dated 2022).)
